Experimental data from US20240285727A1, “NOVEL THERAPEUTIC PEPTIDES FOR NEURODEGENERATION” (UNIVERSITY OF SOUTHERN CALIFORNIA, priority 2021, published 2024).

Tested on: SHSY5Y
Assay: Analogue screening assay, measured by MTT
Format: cell-based
Conditions: as a percentage compared to SHMOOSE (SHMOOSE activity as 100%)
From the text: FIG. 10 depicts an analogue screening assay, measured by MTT. Top: each bar represents a fragment (25-amino acid in length) of SHMOOSE. Bottom: each bar represents a phosphomimetic fragment (25-amino acid in length) of SHMOOSE. Cell model is SHSY5Y. The Inventors made 103 analogues/derivatives (see Table 1).
The Inventors made 103 analogues (Table 1). Referring to FIG. 10, in the top figure, each bar represents a 25-amino acid fragment of the SHMOOSE peptide. […] The sequence length of the analogue is 14 amino acids and 3 different analysis windows of the analogue, each having 11 amino acids, were characterized. […]

Substance | % Efficacy [%]
1 (MPPCLTTWLSQLLKDNSYPLVLGPK) [compound 1] | 62.23
2 (PPCLTTWLSQLLKDNSYPLVLGPKN) [compound 2] | 37.99
3 (PCLTTWLSQLLKDNSYPLVLGPKNF) [compound 3] | 115.35
4 (CLTTWLSQLLKDNSYPLVLGPKNFG) [compound 4] | 12.47
5 (LTTWLSQLLKDNSYPLVLGPKNFGA) [compound 5] | −13.61
6 (TTWLSQLLKDNSYPLVLGPKNFGAT) [compound 6] | −42.74
7 (TWLSQLLKDNSYPLVLGPKNFGATP) [compound 7] | −113.24
8 (WLSQLLKDNSYPLVLGPKNFGATPN) [compound 8] | −3.65
9 (LSQLLKDNSYPLVLGPKNFGATPNK) [compound 9] | −82.17
10 (SQLLKDNSYPLVLGPKNFGATPNKS) [compound 10] | −107.19
11 (QLLKDNSYPLVLGPKNFGATPNKSN) [compound 11] | −85.19
12 (LLKDNSYPLVLGPKNFGATPNKSNN) [compound 12] | −97.85
13 (LKDNSYPLVLGPKNFGATPNKSNNH) [compound 13] | −58.60
14 (KDNSYPLVLGPKNFGATPNKSNNHA) [compound 14] | −147.96
15 (DNSYPLVLGPKNFGATPNKSNNHAH) [compound 15] | 51.51
16 (NSYPLVLGPKNFGATPNKSNNHAHY) [compound 16] | −79.03
17 (SYPLVLGPKNFGATPNKSNNHAHYY) [compound 17] | −195.89
18 (YPLVLGPKNFGATPNKSNNHAHYYN) [compound 18] | −133.09
19 (PLVLGPKNFGATPNKSNNHAHYYNH) [compound 19] | −191.36
20 (LVLGPKNFGATPNKSNNHAHYYNHP) [compound 20] | −248.54
21 (VLGPKNFGATPNKSNNHAHYYNHPN) [compound 21] | −50.24
22 (LGPKNFGATPNKSNNHAHYYNHPNP) [compound 22] | −140.81
23 (GPKNFGATPNKSNNHAHYYNHPNPD) [compound 23] | −210.91
24 (PKNFGATPNKSNNHAHYYNHPNPDF) [compound 24] | −185.28
25 (KNFGATPNKSNNHAHYYNHPNPDFP) [compound 25] | −8.52

Substance | % Efficacy [%]
26 (NFGATPNKSNNHAHYYNHPNPDFPN) [compound 26] | −232.44
27 (FGATPNKSNNHAHYYNHPNPDFPNS) [compound 27] | −226.16
28 (GATPNKSNNHAHYYNHPNPDFPNSP) [compound 28] | −229.42
29 (ATPNKSNNHAHYYNHPNPDFPNSPH) [compound 29] | −262.37
30 (TPNKSNNHAHYYNHPNPDFPNSPHP) [compound 30] | −367.82
31 (PNKSNNHAHYYNHPNPDFPNSPHPY) [compound 31] | −477.36
32 (NKSNNHAHYYNHPNPDFPNSPHPYH) [compound 32] | −145.56
33 (KSNNHAHYYNHPNPDFPNSPHPYHP) [compound 33] | −119.66
34 (SNNHAHYYNHPNPDFPNSPHPYHPR) [compound 34] | −195.91
35 (GPKNFGATPNKSNNHAHYYNHPNPN) [compound 35] | 8.68
36 (PKNFGATPNKSNNHAHYYNHPNPNF) [compound 36] | −120.40
37 (KNFGATPNKSNNHAHYYNHPNPNFP) [compound 37] | −227.50
38 (NFGATPNKSNNHAHYYNHPNPNFPN) [compound 38] | −196.67
40 (GATPNKSNNHAHYYNHPNPNFPNSP) [compound 40] | −302.11
41 (ATPNKSNNHAHYYNHPNPNFPNSPH) [compound 41] | −188.45
42 (TPNKSNNHAHYYNHPNPNFPNSPHP) [compound 42] | −392.68
45 (KSNNHAHYYNHPNPNFPNSPHPYHP) [compound 45] | −292.14
46 (SNNHAHYYNHPNPNFPNSPHPYHPR) [compound 46] | −59.27
47 (MPPCLDDWLDQLLKDNDDPLVLGPK) [compound 47] | −150.17
48 (PPCLDDWLDQLLKDNDDPLVLGPKN) [compound 48] | −159.22
49 (PCLDDWLDQLLKDNDDPLVLGPKNF) [compound 49] | −168.90
50 (CLDDWLDQLLKDNDDPLVLGPKNFG) [compound 50] | −340.42
51 (LDDWLDQLLKDNDDPLVLGPKNFGA) [compound 51] | −132.69
52 (DDWLDQLLKDNDDPLVLGPKNFGAD) [compound 52] | −38.98
53 (DWLDQLLKDNDDPLVLGPKNFGADP) [compound 53] | −76.54

Substance | % Efficacy [%]
54 (WLDQLLKDNDDPLVLGPKNFGADPN) [compound 54] | −45.99
55 (LDQLLKDNDDPLVLGPKNFGADPNK) [compound 55] | −38.64
56 (DQLLKDNDDPLVLGPKNFGADPNKD) [compound 56] | −93.30
57 (QLLKDNDDPLVLGPKNFGADPNKDN) [compound 57] | −1.36
58 (LLKDNDDPLVLGPKNFGADPNKDNN) [compound 58] | −58.59
60 (KDNDDPLVLGPKNFGADPNKDNNHA) [compound 60] | −146.91
62 (NDDPLVLGPKNFGADPNKDNNHAHD) [compound 62] | −250.35
63 (DDPLVLGPKNFGADPNKDNNHAHDD) [compound 63] | −216.49
64 (DPLVLGPKNFGADPNKDNNHAHDDN) [compound 64] | −254.41
65 (PLVLGPKNFGADPNKDNNHAHDDNH) [compound 65] | −163.31
66 (LVLGPKNFGADPNKDNNHAHDDNHP) [compound 66] | −157.61
67 (VLGPKNFGADPNKDNNHAHDDNHPN) [compound 67] | −231.08
68 (LGPKNFGADPNKDNNHAHDDNHPNP) [compound 68] | −144.36
69 (GPKNFGADPNKDNNHAHDDNHPNPD) [compound 69] | −184.35
70 (PKNFGADPNKDNNHAHDDNHPNPDF) [compound 70] | −157.35
71 (KNFGADPNKDNNHAHDDNHPNPDFP) [compound 71] | −113.32
72 (NFGADPNKDNNHAHDDNHPNPDFPN) [compound 72] | −28.57
73 (FGADPNKDNNHAHDDNHPNPDFPND) [compound 73] | −306.02
74 (GADPNKDNNHAHDDNHPNPDFPNDP) [compound 74] | −228.29
75 (ADPNKDNNHAHDDNHPNPDFPNDPH) [compound 75] | −157.10
76 (DPNKDNNHAHDDNHPNPDFPNDPHP) [compound 76] | −184.63
78 (NKDNNHAHDDNHPNPDFPNDPHPDH) [compound 78] | −240.90
79 (KDNNHAHDDNHPNPDFPNDPHPDHP) [compound 79] | −183.31
80 (DNNHAHDDNHPNPDFPNDPHPDHPR) [compound 80] | −214.13
